Measured values taken from patent publication US9884063B2, “Amido-substituted azole compounds” (Bayer Pharma Aktiengesellschaft, priority 2014, dated 2018).

Columns and labels:
[1] = tested on: wildtype Wnt signaling cascade; assay: HEK293 TOP Assay (Super TopFlash luciferase reporter, Wnt-3a stimulated); assay type: cell-based
In short: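 Compounds (50 μM down to 15 nM, 3.16-fold steps, in CAFTY buffer pH 7.4, 2 mM Ca2+, 0.01% BSA) tested in parallel on TOP and FOP HEK293 reporter lines to define selective wildtype Wnt inhibition. Pathway driven by recombinant human Wnt-3a applied at 2500–5 ng/ml in two-fold dilutions.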

TNKS2 = biological target: T1, TNKS2 (Homo sapiens, UniProt Q9H2K2); assay: Modified TNKS2 Assay 3 (BPS kit #80578, biotin-NAD+, 96 well); assay type: biochemical; settings: human TNKS2, BPS kit #80578, 96 well
T1 sequence (Q9H2K2 1-1166): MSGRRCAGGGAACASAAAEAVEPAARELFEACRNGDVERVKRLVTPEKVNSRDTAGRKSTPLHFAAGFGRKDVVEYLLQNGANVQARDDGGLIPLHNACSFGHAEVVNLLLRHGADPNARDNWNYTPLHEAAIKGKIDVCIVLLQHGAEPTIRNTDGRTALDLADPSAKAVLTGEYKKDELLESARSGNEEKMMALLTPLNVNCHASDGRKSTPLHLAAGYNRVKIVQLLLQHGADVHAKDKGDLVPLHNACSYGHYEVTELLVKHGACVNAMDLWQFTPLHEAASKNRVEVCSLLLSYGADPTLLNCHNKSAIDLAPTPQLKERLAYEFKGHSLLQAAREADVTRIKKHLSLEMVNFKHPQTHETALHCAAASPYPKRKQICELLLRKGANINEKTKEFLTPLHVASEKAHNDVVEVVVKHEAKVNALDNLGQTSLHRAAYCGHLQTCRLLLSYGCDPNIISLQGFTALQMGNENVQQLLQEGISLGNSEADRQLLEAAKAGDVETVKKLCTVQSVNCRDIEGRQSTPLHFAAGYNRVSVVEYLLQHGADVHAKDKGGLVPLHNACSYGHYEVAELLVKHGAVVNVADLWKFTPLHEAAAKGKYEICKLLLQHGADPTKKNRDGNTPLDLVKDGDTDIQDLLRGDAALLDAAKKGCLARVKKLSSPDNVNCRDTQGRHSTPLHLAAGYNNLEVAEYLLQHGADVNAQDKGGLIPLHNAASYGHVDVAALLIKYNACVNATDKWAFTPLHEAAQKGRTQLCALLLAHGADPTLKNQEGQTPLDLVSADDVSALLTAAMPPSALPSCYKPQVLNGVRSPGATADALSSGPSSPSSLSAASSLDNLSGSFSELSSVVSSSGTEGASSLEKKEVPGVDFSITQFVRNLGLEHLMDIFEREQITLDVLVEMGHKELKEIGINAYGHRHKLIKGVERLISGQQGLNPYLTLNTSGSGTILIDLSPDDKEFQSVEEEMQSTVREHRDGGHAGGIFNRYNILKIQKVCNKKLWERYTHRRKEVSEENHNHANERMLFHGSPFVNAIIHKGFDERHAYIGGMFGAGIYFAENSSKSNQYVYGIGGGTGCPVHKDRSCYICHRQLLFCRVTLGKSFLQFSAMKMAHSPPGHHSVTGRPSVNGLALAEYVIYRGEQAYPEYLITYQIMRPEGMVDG
In short: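 Commercial kit assay measuring TNKS2-catalysed incorporation of biotin-labelled NAD+ into a protein substrate, detected by streptavidin-HRP chemiluminescence. Run per manufacturer's protocol; IC50 is the concentration halving the normalised signal.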

[2] = Homo sapiens, HEK293, 16 h, HEK293 TOP reporter cell line, Wnt-3a at EC50, 16 hours incubation, compound dilution series 50 μM to 15 nM
[3] = HEK293 TOP reporter cell line, Wnt-3a at EC50, 16 hours incubation, compound dilution series 50 μM to 15 nM

SMILES | IC50 [1, 2] | IC50 (TNKS2) | IC50 ([1]; Homo sapiens, HEK293, 16 h, HEK293 TOP reporter cells, Wnt3a at EC50, 16 hours, luciferase) | IC50 [1, 3]
O=C(Nc1ccc(NC(=O)c2[nH]cnc2C(=O)N2CC(F)C2)cc1)c1cc(F)c(F)cc1Cl [Example 47, N-{4-[(2-chloro-4,5-difluorobenzoyl)amino]phenyl}-4-[(3-fluoroazetidin-1-yl)carbonyl]-1H-imidazole-5-carboxamide] | 340 nM | > 500 nM |  | 
CN(C)CCNC(=O)c1ncoc1C(=O)Nc1ccc(NC(=O)c2ccc(F)cc2Cl)cc1 [Example 31, N^5-{4-[(2-chloro-4-fluorobenzoyl)amino]phenyl}-N^4-[2-(dimethylamino)ethyl]-1,3-oxazole-4,5-dicarboxamide] | 1600 nM | 130 nM | 1600 nM | 
O=C(Nc1ccc(NC(=O)c2nc[nH]c2C(=O)NC2CCOCC2)cc1)c1ccc(F)cc1Cl [Example 234, N^4-{4-[(2-chloro-4-fluorobenzoyl)amino]phenyl}-N^5-(tetrahydro-2H-pyran-4-yl)-1H-imidazole-4,5-dicarboxamide] | 460 nM | 20 nM |  | 
O=C(Nc1ccc(NC(=O)c2nc[nH]c2C(=O)NCC2CCOCC2)cc1)c1ccc(F)cc1Cl [Example 233, N^4-{4-[(2-chloro-4-fluorobenzoyl)amino]phenyl}-N^5-(tetrahydro-2H-pyran-4-ylmethyl)-1H-imidazole-4,5-dicarboxamide] | 450 nM | 160 nM |  | 
CC(CN1CCOCC1)NC(=O)c1[nH]cnc1C(=O)Nc1ccc(NC(=O)c2ccc(F)cc2)cc1 (single isomer, unassigned; enantiomer 1) [Example 295, N^4-{4-[(4-fluorobenzoyl)amino]phenyl}-N^5-[1-(morpholin-4-yl)propan-2-yl]-1H-imidazole-4,5-dicarboxamide (enantiomer 1)] |  | 190 nM |  | 690 nM
O=C(Nc1ccc(NC(=O)c2[nH]cnc2C(=O)N2CC(F)C2)cc1)c1ccc(F)cc1Cl [Example 41, N-{4-[(2-chloro-4-fluorobenzoyl)amino]phenyl}-4-[(3-fluoroazetidin-1-yl)carbonyl]-1H-imidazole-5-carboxamide] | 90 nM | 70 nM |  | 
O=C(Nc1ccc(NC(=O)c2ocnc2C(=O)NCCN2CC[C@@H](F)C2)cc1)c1ccc(F)cc1Cl [Example 222, N^5-{4-[(2-chloro-4-fluorobenzoyl)amino]phenyl}-N^4-{2-[(3R)-3-fluoropyrrolidin-1-yl]ethyl}-1,3-oxazole-4,5-dicarboxamide] | 670 nM | 190 nM |  | 
O=C(Nc1ccc(NC(=O)c2ocnc2C(=O)NCCN2CCCC(F)C2)cc1)c1ccc(F)cc1Cl (stereo not drawn) [Example 220, N^5-{4-[(2-chloro-4-fluorobenzoyl)amino]phenyl}-N^4-[2-(3-fluoropiperidin-1-yl)ethyl]-1,3-oxazole-4,5-dicarboxamide] | 690 nM | 100 nM |  | 
O=C(Nc1ccc(NC(=O)c2nc[nH]c2C(=O)N2CC3(COC3)C2)cc1)c1ccc(F)cc1Cl [Example 145, N-{4-[(2-chloro-4-fluorobenzoyl)amino]phenyl}-5-(2-oxa-6-azaspiro[3.3]hept-6-ylcarbonyl)-1H-imidazole-4-carboxamide] | 290 nM | > 500 nM |  | 
CN(C)CCNC(=O)c1nc[nH]c1C(=O)Nc1ccc(NC(=O)c2ccc(S(C)(=O)=O)cc2Cl)cc1 [Example 54, N^5-(4-{[2-chloro-4-(methylsulfonyl)benzoyl]amino}phenyl)-N^4-[2-(dimethylamino)ethyl]-1H-imidazole-4,5-dicarboxamide] | 1450 nM | 6 nM |  | 
CCc1nc(C(=O)Nc2ccc(NC(=O)c3ccc(F)cc3Cl)cc2)c(C(=O)NCCN(C)C)[nH]1 [Example 69, N^4-{4-[(2-chloro-4-fluorobenzoyl)amino]phenyl}-N^5-[2-(dimethylamino)ethyl]-2-ethyl-1H-imidazole-4,5-dicarboxamide] | 190 nM | 190 nM |  | 
CNC(=O)c1nc[nH]c1C(=O)Nc1ccc(NC(=O)c2cccc(C)c2Cl)cc1 [Example 346, N^5-{4-[(2-chloro-3-methylbenzoyl)amino]phenyl}-N^4-methyl-1H-imidazole-4,5-dicarboxamide] | 900 nM | > 500 nM |  | 
CC(CN1CCOCC1)NC(=O)c1[nH]cnc1C(=O)Nc1ccc(NC(=O)c2ccc(F)cc2Cl)cc1 (single isomer, unassigned; enantiomer 1) [Example 269, N^4-{4-[(2-chloro-4-fluorobenzoyl)amino]phenyl}-N^5-[1-(morpholin-4-yl)propan-2-yl]-1H-imidazole-4,5-dicarboxamide (enantiomer 1)] |  | 130 nM |  | 440 nM

Further lines, results first:

IC50 [1, 2] | IC50 (TNKS2) | IC50 ([1]; Homo sapiens, HEK293, 16 h, HEK293 TOP reporter cells, Wnt3a at EC50, 16 hours, luciferase) | IC50 [1, 3] | SMILES
250 nM | 3 nM |  |  | CCN1CCCC1CNC(=O)c1nc[nH]c1C(=O)Nc1ccc(NC(=O)c2ccc(F)cc2Cl)cc1 (stereo not drawn) [Example 390, N^5-{4-[(2-chloro-4-fluorobenzoyl)amino]phenyl}-N^4-[(1-ethylpyrrolidin-2-yl)methyl]-1H-imidazole-4,5-dicarboxamide]
1250 nM | 140 nM |  |  | O=C(Nc1ccc(NC(=O)c2nc[nH]c2C(=O)NCCN2CCC(F)(F)CC2)cc1)c1ccc(F)cc1Cl [Example 224, N^4-{4-[(2-chloro-4-fluorobenzoyl)amino]phenyl}-N^5-[2-(4,4-difluoropiperidin-1-yl)ethyl]-1H-imidazole-4,5-dicarboxamide]
750 nM | 20 nM |  |  | CNCCNC(=O)c1[nH]cnc1C(=O)Nc1ccc(NC(=O)c2ccc(F)cc2Cl)cc1 [Example 287, N^4-{4-[(2-chloro-4-fluorobenzoyl)amino]phenyl}-N^5-[2-(methylamino)ethyl]-1H-imidazole-4,5-dicarboxamide]
120 nM | 30 nM |  |  | O=C(Nc1ccc(NC(=O)c2nc[nH]c2C(=O)NCCN2CCC[C@@H](F)C2)cc1)c1ccc(F)cc1Cl [Example 277, N^4-{4-[(2-chloro-4-fluorobenzoyl)amino]phenyl}-N^5-{2-[(3R)-3-fluoropiperidin-1-yl]ethyl}-1H-imidazole-4,5-dicarboxamide]
200 nM | 20 nM |  |  | O=C(Nc1ccc(NC(=O)c2nc[nH]c2C(=O)NCCN2CCC(F)CC2)cc1)c1ccc(F)cc1Cl [Example 230, N^4-{4-[(2-chloro-4-fluorobenzoyl)amino]phenyl}-N^5-[2-(4-fluoropiperidin-1-yl)ethyl]-1H-imidazole-4,5-dicarboxamide]
160 nM | 7 nM |  |  | CN1CCN(CCCNC(=O)c2nc[nH]c2C(=O)Nc2ccc(NC(=O)c3ccc(F)cc3Cl)cc2)CC1 [Example 392, N^5-{4-[(2-chloro-4-fluorobenzoyl)amino]phenyl}-N^4-[3-(4-methylpiperazin-1-yl)propyl]-1H-imidazole-4,5-dicarboxamide]
30 nM | 2 nM |  |  | O=C(Nc1ccc(NC(=O)c2nc[nH]c2C(=O)NCCN2CCC[C@H](O)C2)cc1)c1ccc(F)cc1Cl [Example 271, N^4-{4-[(2-chloro-4-fluorobenzoyl)amino]phenyl}-N^5-{2-[(3S)-3-hydroxypiperidin-1-yl]ethyl}-1H-imidazole-4,5-dicarboxamide]
260 nM | 150 nM |  |  | CCNC(=O)c1[nH]cnc1C(=O)Nc1ccc(NC(=O)c2ccc(F)cc2Cl)cc1 [Example 138, N^4-{4-[(2-chloro-4-fluorobenzoyl)amino]phenyl}-N^5-ethyl-1H-imidazole-4,5-dicarboxamide]
230 nM | 8 nM |  |  | CN1CCC(CNC(=O)c2nc[nH]c2C(=O)Nc2ccc(NC(=O)c3ccc(F)cc3Cl)cc2)C1 (stereo not drawn) [Example 407, N^5-{4-[(2-chloro-4-fluorobenzoyl)amino]phenyl}-N^4-[(1-methylpyrrolidin-3-yl)methyl]-1H-imidazole-4,5-dicarboxamide]
